Consider two compounds from US12630532B2, “Indole-substituted quinolines and their combination with Plk1 inhibitors for the treatment of cancer” (UNIVERSITY OF KENTUCKY RESEARCH FOUNDATION, priority 2021, dated 2026).

Data set [1] concerns LS174T colon cancer cell xenografts. Nature of the data set: In vivo antineoplastic activity and gross toxicity in LS174T xenografts. How it is done: Mouse studies were carried out with approval from the Institutional Animal Care and Use Committee of the University of Kentucky (2020-3531). All methods were performed in accordance with the relevant guidelines and regulations according to protocols. […] After tumors were established, mice were randomized according to tumor volume and divided into groups for treatments (five mice in each group, two tumors on each mouse).
The in vivo evaluation of ISQ-1 and BI2536 followed the approved protocol. After tumors were established, ISQ-1 was formulated in a mixture of Tween-80 (5%), DMSO (10%), PEG400 (25%) and PBS (60%) and was intraperitoneally administered to the ISQ-1 group at a daily dose of 20 mg/kg mouse body weight. The first day of treatment was set as day 0. At days 0, 4, and 7, BI2536 dissolved in 0.1 N HCl and then diluted 5-fold using 0.9% NaCl was given via gavage to the B12536 group. Mice in combination therapy group were treated with both ISQ-1 and BI2536 following aforementioned dosing schedules. At day 11 treatment was ceased and mice were sacrificed. Tumors and mouse weights were measured, and tumor volumes were calculated as Length×width^2/2.
Major biological assays were performed at least twice. Data were shown as mean SEM. For the mice study, five mice with two tumors on the lower flanks of each mouse were used in each treatment group. Sizes of the two tumors from each mouse were averaged, standardized by the tumor size on day 0, and log-transformed. ANOVA with Tukey's HSD test was used to compare the tumor size at the end of the study (day 11) between the combination therapy of ISQ-1 and B12536 and each single compound as well as the control. The equal variance assumption of ANOVA was assessed by Bartlett's test. All statistical studies were overseen in collaboration with a statistician in the University of Kentucky's Markey Cancer Center.

For data set [2] the following is noted: cited from earlier work.
The next data set concerns LS174T cells. Nature of the data set: Cell proliferation inhibition assay (5 days, cell counting). The class given is cell-based. How it is done: Cell proliferation inhibition assays were done following a previous report (32). Cancer cells were seeded into 24-well plates at a density of 20,000 cells per well in 1 mL of culture medium and were cultured overnight at 37° C. Compounds and the vehicle control (DMSO) were added to the cells. After 5 days, the medium was removed, and 100 μL of trypsin was added. The cells were resuspended in phosphate-buffered saline (PBS) and were counted by Vi-CELL XR 2.03 (Beckman Coulter, Inc. USA). The ratio R of the number of viable cells in the compound treatment group to the number of viable cells in DMSO treatment group was taken as relative growth, and the percentage growth inhibition was calculated as (1−R)*100.

The subject of data set [3] is Wnt signaling target genes c-Myc and axin2. The data set is described as follows: Western blotting of Wnt signaling target genes in LS174T cells. The class given is cell-based. Particulars: 24 hours. On the procedure: (§1) Western blotting were performed according to previous procedures (25). Cells were split into 12-well plates. After 24 hours, compounds at indicated final concentrations were added to each well for another 24 hours unless otherwise noted. DMSO was used as a control. Cells were lysed in the appropriate volume of lysis buffer: 50 mM HEPES, 100 mM NaCl, 2 mM EDTA, 1% (v/v) glycerol, 50 mM NaF, 1 mM Na3VO4, 1% (v/v) Triton X-100, with protease inhibitors. Cell lysates were centrifuged, and supernatants were mixed with 6× protein loading buffer and boiled. The obtained samples were analyzed with standard western blotting methods with indicated antibodies.
(In general: A western blot detects proteins with antibodies after separation by electrophoresis.)

A further data set concerns AMPK. Nature of the data set: AMPK activation (western blotting, pAMPK/pACC) in LS174T cells. The format is cell-based. How it is done: as §1
Data set [4] concerns mitochondrial ETC (electron transport chain). The data set is described as follows: Seahorse assay (OCR) in Beas-2B cells. The format is cell-based. On the procedure: Seahorse assays were carried out following a published procedure (25). Briefly, 2.5×10^4 cells in 80 μL of medium were seeded in XF96 Cell Culture microplate for all experiments. On the next day, cell culture media were replaced with Seahorse XF modified media. Cells were treated with 1 μM of oligomycin A, 1.0 μM FCCP and mixture of 1.0 μM of rotenone and 1.0 μM of antimycin A in standard mitochondrial stress test conditions. To determine the uncoupler effects, FCCP was replaced with an equal volume of DMSO, or a compound to be tested in DMSO solution.

Data set [5] has as its system mitochondrial ETC complex I. The data set is described as follows: Mitochondrial ETC complex activity measurements using PMP-permeabilized cells. The class given is cell-based. Particulars: pyruvate substrate. How it is done: Mitochondrial ETC complex activity measurements were taken using the Agilent Seahorse Assay with XF PMP (Agilent, Santa Clara, CA) following manufacturer's instructions. Adherent monolayer cells were gently washed with mitochondrial assay solution (MAS) (220 mM mannitol, 70 mM sucrose, 10 mM KH2PO4, 5 mM MgCl2, 2 mM HEPES, 1 mM EGTA, and 0.2% (w/v) fatty acid free BSA) and cell growth media was replaced with MAS supplemented with 4 mM adenosine diphosphate (ADP), 10 mM pyruvate, and 1 nM PMP. Following calibration, the assay was immediately performed by measuring baseline with two cycles of 0.5 min mixing, 0.5 min waiting, and 2 min measuring. After baseline measurements, sequential injections of DMSO, compounds of interest or 2 μM rotenone, 10 mM succinate, 2 μM antimycin A, and a combination of 10 mM ascorbate and 100 μM TMPD were also performed with each followed by two cycles of 0.5 min mixing, 0.5 min waiting, and 2 min measuring. Data were then normalized to cell counts using the Biotek Cytation 1 (BioTek Instruments, Winooski, VT, USA).

In another data set the test system is Plk1. Nature of the data set: Western blotting of cell signaling pathways in LS174T cells. The class given is cell-based. Particulars: LS174T colon cancer cells, 24 hours. How it is done: as §1

For the compound `CC[C@@H]1C(=O)N(C)c2cnc(Nc3ccc(C(=O)NC4CCN(C)CC4)cc3OC)nc2N1C1CCCC1` [BI2536, reference compound], the “gross toxicities on the basis of mouse weight measurements” value in data set [1] (mouse, in vivo) is on record as “No gross toxicities”. In addition, in data set [1] (nude mice, ISQ-1 20 mg/kg daily i.p., BI2536 30 mg/kg twice a week by gavage, day 11), the “tumor growth of LS174T xenografts” value was “inhibited tumor growth but did not induce tumor regression”. Further, the “antitumor activity in Phase II clinical trials” value in data set [2] (Phase II) was “only limited antitumor activity”. In addition, the “safety in phase I clinical trials” value in data set [2] (phase I) is “safe”.
As for `Cn1cc(-c2cc3ccc(N4CCC(C#N)CC4)cc3nc2N)c2ccccc21` [ISQ-7, 1-(2-Amino-3-(1-methyl-1H-indol-3-yl)quinolin-7-yl)piperidine-4-carbonitrile], in the data set on LS174T cells (500 nM), the “percentage inhibition of LS174T cell proliferation at 500 nM, compared among ISQs (FIG. 2B)” value was “comparable to the N,N-dimethylamino group in ISQ-1”. For the same compound, in the data set on LS174T cells (Homo sapiens, LS174T, 120 h, 62 nM, 5 days), at 0.062 µM the inhibition was 19 ± 5.5%. The inhibition (in general, the percentage by which the read-out fell short of the control) at 0.125 µM with LS174T cells (Homo sapiens, LS174T, 120 h, 125 nM, 5 days) stood at 89 ± 0.2%. For the same compound, the inhibition at 0.25 µM with LS174T cells (Homo sapiens, LS174T, 120 h, 250 nM, 5 days) worked out at 98 ± 0.6%. The compound also registered an inhibition at 0.5 µM in the data set with LS174T cells (Homo sapiens, LS174T, 120 h, 500 nM, 5 days) of 97 ± 0.7%. Besides, the IC50 in the data set with LS174T cells (Homo sapiens, dose response studies, LS174T, read-out: IC50 values in cell proliferation assays) is around 100 nM. The “effect on Wnt signaling target genes c-Myc and axin2” value in data set [3] is “strongly inhibited”. The AMPK activation result with AMPK was “activated AMPK”. Moreover, in data set [4], the “ETC complex V inhibition (oligomycin replaced with compound)” value is “did not inhibit ETC complex V” and the “uncoupler effect (FCCP replaced with compound)” value is recorded as “no uncouplers”. The “ETC complex I inhibition (pyruvate/NADH-linked respiration)” value in data set [5] was “inhibited complex I”. The “Plk1 expression upon drug treatment” value with Plk1 was “induced”.
